Values of other authors in patent US20050202550A1, “Crystal structure of 3', 5'-cyclic nucleotide phosphodiesterase (PDE10A) and uses thereof” (Pfizer Inc, priority 2004, published 2005).

Molecular target: T1, PDE10 (Mus musculus, UniProt Q8CA95)
T1 sequence (Q8CA95 1-779 isoform Q8CA95-2): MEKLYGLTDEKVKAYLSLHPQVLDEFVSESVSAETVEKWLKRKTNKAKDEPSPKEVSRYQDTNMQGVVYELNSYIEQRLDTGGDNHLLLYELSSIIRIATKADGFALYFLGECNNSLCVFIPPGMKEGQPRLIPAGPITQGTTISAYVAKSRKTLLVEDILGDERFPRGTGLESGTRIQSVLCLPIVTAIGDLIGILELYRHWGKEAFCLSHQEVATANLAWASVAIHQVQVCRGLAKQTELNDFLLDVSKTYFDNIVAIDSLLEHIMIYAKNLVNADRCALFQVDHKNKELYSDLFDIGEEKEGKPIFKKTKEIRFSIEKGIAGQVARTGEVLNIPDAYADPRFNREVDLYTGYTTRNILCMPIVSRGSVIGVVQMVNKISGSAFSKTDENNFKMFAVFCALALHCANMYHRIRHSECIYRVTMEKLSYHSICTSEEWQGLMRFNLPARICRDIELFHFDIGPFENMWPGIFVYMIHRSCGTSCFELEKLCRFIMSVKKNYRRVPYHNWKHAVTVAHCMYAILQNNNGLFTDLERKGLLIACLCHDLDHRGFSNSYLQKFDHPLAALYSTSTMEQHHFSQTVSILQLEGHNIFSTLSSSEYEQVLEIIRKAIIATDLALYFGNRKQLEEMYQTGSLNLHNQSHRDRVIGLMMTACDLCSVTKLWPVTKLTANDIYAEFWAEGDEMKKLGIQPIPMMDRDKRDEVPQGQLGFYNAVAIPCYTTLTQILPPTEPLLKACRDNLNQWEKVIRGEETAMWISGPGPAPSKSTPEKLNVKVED
Conditions: mouse PDE10A1

Nc1nc2c(ncn2[C@@H]2O[C@@H]3COP(=O)(O)O[C@H]3[C@H]2O)c(=O)[nH]1 [cGMP]
Vmax for cGMP over cAMP (ratio of Vmax cGMP to cAMP): approximately 5 fold
Km (substrate, read-out: Km (affinity of the PDE10 for substrate)): 3 µM
